This is an account of results in patent US20200011856A1, “Method for Determining the Effectiveness of Treatment for the Prevention of Heartworm Disease” (priority 2017, published 2020).

“And” between values parts separate entries of the source, which are not always exact repeats. Identical values can stand only once.

One assay relates to Dirofilaria immitis. Kind of assay: D. immitis L3 infection of NSG mice (FR3 Missouri strain or strain not stated), treatment, recovery and count of worms at necropsy. Format: in vivo. The conditions noted are these: for % Rec (percent of the original 50 Di recovered): 1 mg/kg.
Assay [1] deals with Dirofilaria immitis (Merial worms, UC strain). Kind of assay: D. immitis L3 infection of NSG mice with Merial worms / UC strain, treatment, recovery and count of worms. It is filed as in vivo. The following applies: for % Rec, Mean / Mean % Rec: group mean; for Mean Survival / Survival, Mean: in vivo.
Setting [2] is: Table 9, NSG mice, 50 Di L3, 1 mg/kg on Days 1, 15, and 30, recovery Days 41 to 43.
Setting [3] is: Table 9, group mean, NSG mice, 50 Di L3, 1 mg/kg on Days 1, 15, and 30, recovery Days 41 to 43.
The mark [4] stands for this setting: Table 9, individual mouse, NSG mice, 50 Di L3, 1 mg/kg on Days 1, 15, and 30, recovery Days 41 to 43.
Where [5] appears, read: NSG mice, 50 Di L3 Merial worms, 1 mg/kg on Days 1, 15, and 30, recovery Days 41 to 43.
The mark [6] stands for this setting: NSG mice, 50 Di L3 UC strain, High Dose 2 mg/kg on Days 1, 15, and 30, recovery Days 41 and 42.
Where [7] appears, read: NSG mice, 50 Di L3 UC strain, Normal Dose 1 mg/kg on Days 1, 15, and 30, recovery Days 41 and 42.

For the compound `COC(=O)Nc1nc2ccc(OS(=O)(=O)c3ccc(F)cc3)cc2[nH]1` [compound 8914, luxabendazole], the “% Red” value with Dirofilaria immitis (setting [2]) stood at 0%. Moreover, the “Mean % Rec” value in the assay on Dirofilaria immitis (setting [3]) was found to be 33%. The “% Rec” value with Dirofilaria immitis (setting [4]) was 24% and 32% and 28% and 48%. Also, in the assay on Dirofilaria immitis (in vivo), the “Mean Survival” value is given as 17; the Survival was 12 and 16 and 14 and 24.
For the compound `CC(C)C[C@H]1C(=O)O[C@H](C)C(=O)N(C)[C@@H](CC(C)(C)F)C(=O)O[C@H](Cc2ccc(C3CCOCC3)cc2)C(=O)N(C)[C@@H](CC(C)C)C(=O)O[C@H](C)C(=O)N(C)[C@@H](CC(C)(C)F)C(=O)O[C@H](Cc2ccc(C3CCOCC3)cc2)C(=O)N1C` [compound 8800], the “% Red” value stood at 100% in the assay with Dirofilaria immitis (8800 5 mg/kg Days 1, 15, 30, 50 Di L3 per NSG mouse, Table 14, vs Control); 38% in the assay on Dirofilaria immitis (NSG mice, 50 Di L3, 2x (1 mg/kg) at Days 1 and 30, recovery Days 41 to 43); 43% in the assay on Dirofilaria immitis (NSG mice, 50 Di L3 Day 0, 1 mg/kg EMO or 8800 on Days 30 and 60, recovery Days 83 and 84); 73% in the assay with Dirofilaria immitis (setting [2]); 0% in the assay with Dirofilaria immitis (Table 11, NSG mice, 50 Di L3, 0.3 mg/kg on Days 1, 15, and 30, recovery Days 41 to 42); 71% in the assay on Dirofilaria immitis (Table 11, NSG mice, 50 Di L3, 1 mg/kg on Days 1, 15, and 30, recovery Days 41 to 42). In addition, the “% Red” value in assay [1] (8800 1 mg/kg Days 1, 15, 30, 50 Di L3 (UC Strain) per NSG mouse, vs Control) is listed as 73%; in assay [1] (8800 2 mg/kg Days 1, 15, 30, 50 Di L3 (UC Strain) per NSG mouse, vs Control), 94%; in assay [1] (setting [5]), 65%; in assay [1] (setting [6]), 94%; in assay [1] (setting [7]), 81%. Besides, the “% Rec, Mean” value in the assay on Dirofilaria immitis (8800 5 mg/kg Days 1, 15, 30, 50 Di L3 per NSG mouse, recovery Days 41 to 42, Table 14, group mean) was 0%; in assay [1] (8800 1 mg/kg Days 1, 15, 30, 50 Di L3 (UC Strain) per NSG mouse, recovery Days 41 to 43), 10%; in assay [1] (8800 2 mg/kg Days 1, 15, 30, 50 Di L3 (UC Strain) per NSG mouse, recovery Days 41 to 43), 2%. For the same compound, the “% Rec” value in the assay on Dirofilaria immitis (8800 5 mg/kg Days 1, 15, 30, 50 Di L3 per NSG mouse, recovery Days 41 to 42, Table 14, individual mice) was 0%; in the assay with Dirofilaria immitis (setting [4]), 8% (3×) and 10% and 28% and 16% and 0%; with Dirofilaria immitis (Table 11, individual mouse, NSG mice, 50 Di L3, 0.3 mg/kg on Days 1, 15, and 30, recovery Days 41 to 42), 16% (2×) and 36% (3×) and 14%; with Dirofilaria immitis (Table 11, individual mouse, NSG mice, 50 Di L3, 1 mg/kg on Days 1, 15, and 30, recovery Days 41 to 42), 4% (2×) and 2% and 16% and 8% and 6%; in the assay on Dirofilaria immitis (individual mouse, NSG mice, 50 Di L3, 2x (1 mg/kg) at Days 1 and 30, recovery Days 41 to 43), 22% and 16% and 12% and 26% and 20% and 32%; in assay [1] (8800 1 mg/kg Days 1, 15, 30, 50 Di L3 (UC Strain) per NSG mouse, recovery Days 41 to 43, individual mice, 1 mg/kg), 10% (2×) and 14% and 16% and 4% and 6% and 12%. Also, the “% Rec” value in assay [1] (8800 2 mg/kg Days 1, 15, 30, 50 Di L3 (UC Strain) per NSG mouse, recovery Days 41 to 43, individual mice, 2 mg/kg) was 2% (3×) and 0% (2×) and 6% and 4%; in assay [1] (individual mouse, NSG mice, 50 Di L3 Merial worms, 1 mg/kg on Days 1, 15, and 30, recovery Days 41 to 43, 1 mg/kg) it was 0% (2×) and 12% (3×) and 8% and 32% and 16%; in assay [1] (individual mouse, NSG mice, 50 Di L3 UC strain, High Dose 2 mg/kg on Days 1, 15, and 30, recovery Days 41 and 42, 2 mg/kg), 2% (3×) and 0% (3×) and 8%; in assay [1] (individual mouse, NSG mice, 50 Di L3 UC strain, Normal Dose 1 mg/kg on Days 1, 15, and 30, recovery Days 41 and 42, 1 mg/kg), 6% (2×) and 4% and 2% and 8% and 10% and 14%. The “% Red (percent reduction in percent of Di recovered compared to control)” value with Dirofilaria immitis (NSG mice, 50 Di L3 Day 0, 1 mg/kg on Day 30, recovery Days 41 to 43) was found to be 23%. Further, the “Mean % Rec” value turned out to be 9% in the assay on Dirofilaria immitis (setting [3]); 26% in the assay with Dirofilaria immitis (Table 11, group mean, NSG mice, 50 Di L3, 0.3 mg/kg on Days 1, 15, and 30, recovery Days 41 to 42); 7% in the assay on Dirofilaria immitis (Table 11, group mean, NSG mice, 50 Di L3, 1 mg/kg on Days 1, 15, and 30, recovery Days 41 to 42); 21% in the assay on Dirofilaria immitis (group mean, NSG mice, 50 Di L3, 2x (1 mg/kg) at Days 1 and 30, recovery Days 41 to 43); 8% in the assay with Dirofilaria immitis (group mean, NSG mice, 50 Di L3 Day 0, 1 mg/kg EMO or 8800 on Days 30 and 60, recovery Days 83 and 84); 31% with Dirofilaria immitis (group mean, NSG mice, 50 Di L3 Day 0, 1 mg/kg on Day 30, recovery Days 41 to 43). Also, the “Mean % Rec” value in assay [1] (setting [5]) is reported as 12%; in assay [1] (setting [6]), 2%; in assay [1] (setting [7]), 7%. This compound also showed a Survival in the assay with Dirofilaria immitis (in vivo, 5 mg/kg) of 0. For the same compound, the “Survival, Mean” value with Dirofilaria immitis (in vivo, 5 mg/kg) came out at 0; in assay [1] (1 mg/kg), 5; in assay [1] (2 mg/kg), 1. The “% Rec (percent of the original 50 Di recovered)” value is 14% and 4% (2×) and 10% and 12% and 6% in the assay on Dirofilaria immitis (individual mouse, NSG mice, 50 Di L3 Day 0, 1 mg/kg EMO or 8800 on Days 30 and 60, recovery Days 83 and 84); 24% (3×) and 36% and 28% and 52% in the assay with Dirofilaria immitis (individual mouse, NSG mice, 50 Di L3 Day 0, 1 mg/kg on Day 30, recovery Days 41 to 43). For the same compound, the “Mean Survival” value is 6 and 4 in assay [1] (1 mg/kg); 1 in assay [1] (2 mg/kg).
